One molecule from PMC7179274, “6′-β-Fluoro-Homoaristeromycin and 6′-Fluoro-Homoneplanocin A Are Potent Inhibitors of Chikungunya Virus Replication through Their Direct Effect on Viral Nonstructural Protein 1” (Antimicrobial Agents and Chemotherapy, 2020) can be followed below.

The target in this experiment is T1, wt SFV nsP1 (Semliki forest virus, UniProt P08411).
T1 sequence (P08411 1-537): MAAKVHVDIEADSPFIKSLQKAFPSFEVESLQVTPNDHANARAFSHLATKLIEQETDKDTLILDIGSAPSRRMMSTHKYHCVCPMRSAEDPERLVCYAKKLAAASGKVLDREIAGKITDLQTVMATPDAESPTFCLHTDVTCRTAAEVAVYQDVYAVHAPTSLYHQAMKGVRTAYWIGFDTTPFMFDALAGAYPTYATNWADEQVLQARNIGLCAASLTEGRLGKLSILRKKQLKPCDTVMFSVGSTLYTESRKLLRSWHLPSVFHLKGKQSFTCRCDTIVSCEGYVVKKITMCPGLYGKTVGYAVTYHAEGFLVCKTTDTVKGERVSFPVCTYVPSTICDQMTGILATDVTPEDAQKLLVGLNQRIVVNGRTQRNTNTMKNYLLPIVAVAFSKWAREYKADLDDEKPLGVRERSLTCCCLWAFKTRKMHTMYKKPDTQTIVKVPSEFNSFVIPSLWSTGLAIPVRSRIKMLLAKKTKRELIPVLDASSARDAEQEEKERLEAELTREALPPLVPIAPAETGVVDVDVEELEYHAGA
The experiment is described as follows: nsP1 enzymatic activity assay (m7GMP-nsP1 intermediate formation), wt. As to conditions: for Inhibition of wt SFV nsP1: 10 μM SAM.

Turning to `Nc1ncnc2c1ncn2C1C(F)=C(CCO)C(O)C1O` (stereo not shown) [FHNA, 6′-fluoro-homoneplanocin A], the “Effect on formation of m7GMP-nsP1 intermediate” value (50 μM to 1 mM, 100 μM SAM, 5 mM DTT) is “did not observe any inhibitory effect”. Also, the “Inhibition of wt SFV nsP1” value (1 mM compound + 1 mM NAD+, absence of DTT) is “more than 50%” and the “Inhibition of wt SFV nsP1” value (1 mM, nonreducing conditions (absence of DTT)) is reported as “more than 40%”. In addition, the “Effect on formation of m7GMP-nsP1 intermediate at low SAM” value (1 mM compound, 5 or 10 μM SAM) is “no direct inhibitory effect”.
